Experimental data from PubChem BioAssay (NCI).
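These data come from cells grown in 96-well plates and exposed to compound for 48 hours at five concentrations. TGI is the concentration that stops growth completely.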

What was measured:
Test in all cases: NCI tumour cell line growth inhibition, 48 h
T-47D breast = tested on: T-47D breast
MDA-MB-231 breast = tested on: MDA-MB-231 breast
IGROV1 ovarian = tested on: IGROV1 ovarian
MALME-3M melanoma = tested on: MALME-3M melanoma
SN12C renal = tested on: SN12C renal
HCT-116 colon = tested on: HCT-116 colon
DMS 273 small cell lung = tested on: DMS 273 small cell lung
K-562 leukemia = tested on: K-562 leukemia
KM12 colon = tested on: KM12 colon
LOX IMVI melanoma = tested on: LOX IMVI melanoma
RXF 393 renal = tested on: RXF 393 renal
DU-145 prostate = tested on: DU-145 prostate
HOP-18 NSCLC = tested on: HOP-18 NSCLC
EKVX NSCLC = tested on: EKVX NSCLC
M14 melanoma = tested on: M14 melanoma
P388/ADR leukemia = tested on: P388/ADR leukemia
COLO 205 colon = tested on: COLO 205 colon
A549 NSCLC = tested on: A549 NSCLC
DLD-1 colon = tested on: DLD-1 colon
OVCAR-8 ovarian = tested on: OVCAR-8 ovarian
BT-549 breast = tested on: BT-549 breast
HOP-92 NSCLC = tested on: HOP-92 NSCLC
SK-MEL-5 melanoma = tested on: SK-MEL-5 melanoma
MOLT-4 leukemia = tested on: MOLT-4 leukemia
HT29 colon = tested on: HT29 colon
KM20L2 colon = tested on: KM20L2 colon
UACC-62 melanoma = tested on: UACC-62 melanoma
UACC-257 melanoma = tested on: UACC-257 melanoma
SK-OV-3 ovarian = tested on: SK-OV-3 ovarian
MCF7 breast = tested on: MCF7 breast
NCI-H522 lung = tested on: NCI-H522 lung
OVCAR-3 ovarian = tested on: OVCAR-3 ovarian
SN12K1 renal = tested on: SN12K1 renal
DMS 114 small cell lung = tested on: DMS 114 small cell lung
NCI/ADR-RES ovarian = tested on: NCI/ADR-RES ovarian
UO-31 renal = tested on: UO-31 renal
U251 CNS = tested on: U251 CNS
HCC-2998 colon = tested on: HCC-2998 colon
SNB-75 CNS = tested on: SNB-75 CNS
OVCAR-5 ovarian = tested on: OVCAR-5 ovarian
MDA-MB-435 = tested on: MDA-MB-435
SF-295 CNS = tested on: SF-295 CNS
A498 renal = tested on: A498 renal
SW-620 colon = tested on: SW-620 colon
786-0 renal = tested on: 786-0 renal
HL-60(TB) leukemia = tested on: HL-60(TB) leukemia
MDA-N = tested on: MDA-N
CAKI-1 renal = tested on: CAKI-1 renal
HS 578T breast = tested on: HS 578T breast
NCI-H460 lung = tested on: NCI-H460 lung
HCT-15 colon = tested on: HCT-15 colon
NCI-H23 lung = tested on: NCI-H23 lung
CCRF-CEM leukemia = tested on: CCRF-CEM leukemia
XF 498 CNS = tested on: XF 498 CNS
SNB-19 CNS = tested on: SNB-19 CNS
SK-MEL-28 melanoma = tested on: SK-MEL-28 melanoma
HOP-62 NSCLC = tested on: HOP-62 NSCLC
SK-MEL-2 melanoma = tested on: SK-MEL-2 melanoma
ACHN renal = tested on: ACHN renal
PC-3 prostate = tested on: PC-3 prostate
M19-MEL melanoma = tested on: M19-MEL melanoma
SF-268 CNS = tested on: SF-268 CNS
SF-539 CNS = tested on: SF-539 CNS
RPMI-8226 leukemia = tested on: RPMI-8226 leukemia
OVCAR-4 ovarian = tested on: OVCAR-4 ovarian
SNB-78 CNS = tested on: SNB-78 CNS
P388 leukemia = tested on: P388 leukemia
TK-10 renal = tested on: TK-10 renal
NCI-H226 lung = tested on: NCI-H226 lung
SR leukemia = tested on: SR leukemia

COc1cccc2c1C(=O)c1c(O)c3c(c(O)c1C2=O)C[C@@](O)(/C(C)=N/NC(=O)c1ccccc1)C[C@@H]3OC1CC(N)C(O)C(C)O1 (stereo not given in full) showed a TGI (T-47D breast) of 3.44 µM, a TGI (MDA-MB-231 breast) of 3.14 µM and a TGI (IGROV1 ovarian) of 6.35 µM. For the same compound, the TGI (MALME-3M melanoma) was 1.3 µM, the TGI (SN12C renal) was 5.7 µM and the TGI (HCT-116 colon) was 10.2 µM. For the same compound, the TGI (DMS 273 small cell lung) was 1.65 µM, the TGI (K-562 leukemia) was 4.25 µM and the TGI (KM12 colon) was 6.64 µM. For the same compound, the TGI (LOX IMVI melanoma) was 0.709 µM, the TGI (RXF 393 renal) was 1.28 µM and the TGI (DU-145 prostate) was 0.903 µM. It also gave a TGI (HOP-18 NSCLC) of 6.61 µM, a TGI (EKVX NSCLC) of 3.02 µM and a TGI (M14 melanoma) of 1.48 µM. For the same compound, the TGI (P388/ADR leukemia) was 35.6 µM, the TGI (COLO 205 colon) was 3.2 µM and the TGI (A549 NSCLC) was 4.25 µM. It also gave a TGI (DLD-1 colon) of 17.6 µM, a TGI (OVCAR-8 ovarian) of 5.96 µM and a TGI (BT-549 breast) of 1.45 µM. For the same compound, the TGI (HOP-92 NSCLC) was 1.11 µM, the TGI (SK-MEL-5 melanoma) was 0.74 µM and the TGI (MOLT-4 leukemia) was 0.681 µM. The TGI (HT29 colon) was 6.04 µM, the TGI (KM20L2 colon) was 9.23 µM and the TGI (UACC-62 melanoma) was 1.19 µM. It also gave a TGI (UACC-257 melanoma) of 3.51 µM, a TGI (SK-OV-3 ovarian) of 4.56 µM and a TGI (MCF7 breast) of 2.93 µM. It also gave a TGI (NCI-H522 lung) of 1.1 µM, a TGI (OVCAR-3 ovarian) of 4.55 µM and a TGI (SN12K1 renal) of 1.88 µM. It also gave a TGI (DMS 114 small cell lung) of 1.11 µM, a TGI (NCI/ADR-RES ovarian) of 76 µM and a TGI (UO-31 renal) of 8.69 µM. It also gave a TGI (U251 CNS) of 7.18 µM, a TGI (HCC-2998 colon) of 2.02 µM and a TGI (SNB-75 CNS) of 1.97 µM. For the same compound, the TGI (OVCAR-5 ovarian) was 4.73 µM, the TGI (MDA-MB-435) was 2.15 µM and the TGI (SF-295 CNS) was 1.84 µM. The TGI (A498 renal) was 3.42 µM, the TGI (SW-620 colon) was 4.89 µM and the TGI (786-0 renal) was 0.744 µM. For the same compound, the TGI (HL-60(TB) leukemia) was 0.771 µM, the TGI (MDA-N) was 1.96 µM and the TGI (CAKI-1 renal) was 1.47 µM. The TGI (HS 578T breast) was 1.82 µM, the TGI (NCI-H460 lung) was 3.55 µM and the TGI (HCT-15 colon) was 19.9 µM. For the same compound, the TGI (NCI-H23 lung) was 1.54 µM, the TGI (CCRF-CEM leukemia) was 3.19 µM and the TGI (XF 498 CNS) was 0.242 µM. The TGI (SNB-19 CNS) was 7.86 µM, the TGI (SK-MEL-28 melanoma) was 4.02 µM and the TGI (HOP-62 NSCLC) was 0.715 µM. For the same compound, the TGI (SK-MEL-2 melanoma) was 1.41 µM, the TGI (ACHN renal) was 0.975 µM and the TGI (PC-3 prostate) was 1.75 µM. The TGI (M19-MEL melanoma) was 2.99 µM, the TGI (SF-268 CNS) was 3.35 µM and the TGI (SF-539 CNS) was 1.58 µM. The TGI (RPMI-8226 leukemia) was 3.85 µM, the TGI (OVCAR-4 ovarian) was 7.74 µM and the TGI (SNB-78 CNS) was 6.1 µM. It also gave a TGI (P388 leukemia) of 1.61 µM, a TGI (TK-10 renal) of 5.85 µM and a TGI (NCI-H226 lung) of 0.786 µM. The TGI (SR leukemia) was 0.845 µM.
